Results from US11242337B2, “Compounds useful for treating gastrointestinal tract disorders” (Ardelyx, Inc., priority 2017, dated 2022).
Where two headings read alike, the source gives them in different places.

Key:
[1] = tested on: absorption of sodium from the intestinal lumen; test: Inhibition of intestinal sodium absorption in mice; format: in vivo; conditions: CD-1 mice, 15 mg/kg oral gavage twice daily; for Fecal fluid content (Δ from vehicle): day 3, change from vehicle group mean; for response vs control in vivo at 15 mg/kg: Mus musculus, 72 h, day 3, normalized to dietary sodium intake
Description: Urinary and fecal sodium excretions were measured to assess the ability of selected example compounds to inhibit the absorption of sodium from the intestinal lumen. In addition, an assessment of the absence or presence of diarrhea in response to compound treatment was made. Approximately eight-week old, male, CD-1 mice were purchased from Envigo (Livermore, Calif.), were housed 6 per cage and acclimated for at least 48 hours before study initiation. Animals were fed Harlan Teklad Global TD.160470 rodent chow (Madison, Wis.), standard laboratory rodent chow Harlan Teklad Global 2018 with the addition of 0.4% inorganic phosphorous. […] To initiate the study, mice were weighed and then individually placed in metabolic cages. Following a 3-day acclimation period to the metabolic cage, a 24-hr baseline collection of urine and feces was performed. […] Each day, measurements of body weight. 24-hour food intake, water intake, urine volume and wet fecal weight were recorded, along with any observation of diarrhea. Fecal samples were dried using a lyophilizer for at least 3 days, following which dry weight was recorded and fecal fluid content was calculated based on the difference between the wet and dry stool weights. Fecal fluid content on day 3 of compound treatment was calculated as a change from the vehicle group mean. For urine samples, the volumes were determined gravimetrically. Feces and urine were analyzed for sodium content by microwave plasma-atomic emission spectroscopy or ion chromatography, respectively. Urine samples were analyzed on an ion chromatography system (Thermo Fisher ICS-3000 or ICS-5000+) coupled with conductivity detectors. Chromatographic separation of cations was performed using an IonPac CS12A (Thermo Fisher) 2×250 mm analytical column with an isocratic elution using […] methanesulfonic acid. Concentrations were interpolated from a a standard curve (prepared in 10 mM HCl) for sodium ion based on retention time and peak area. Fecal sample analysis by Microwave Plasma Atomic Emission Spectrometry (MP-AES). Dry fecal samples were ground into a fine powder on a homogenizer and the ground samples (400-600 mg aliquots weighed) were digested with nitric acid by microwave method (Mars 6). These digested samples were diluted with 1% Nitric acid and analyzed on Agilent 4100 MP-AES. Concentrations were calculated relative to a standard curve (prepared in 1% Nitric acid) for sodium based on the signal intensity. Sodium was detected at a wavelength of 588.995 nm. Twenty-four-hour urinary sodium excretion (ma/24-hours) was calculated by multiplying urinary sodium concentration by 24-hour urine volume. Twenty-four-hour fecal sodium excretion (mg/24-hours) was calculated by multiplying fecal sodium concentration by 24-hour dry fecal weight. The urinary and fecal sodium excretion on day 3 of compound treatment were normalized to dietary sodium intake and expressed as a percentage of the vehicle mean.

[2] = tested on: human ileum monolayer culture; test: Sustained inhibition of apical acid secretion in human organoid monolayer cell cultures (ileum); format: cell-based; conditions: Homo sapiens, 48 h; 1 μM apical, dosed day 6, apical media pH day 8, vs DMSO
Description: Basal media (BM) consisted of advanced DMEM/F12 containing 10 mM HEPES Invitrogen, 15630-080), 1:100 Glutamax (Invitrogen, 35050-061), and 1:100 penicillin/streptomycin (Invitrogen, 15140-122). Supplemented basal media (SBM) contained 1:100 N2 (Invitrogen, 17502-048), 1:50 B27 (Invitrogen, 12587-010), 1 mM N-acetylcysteine (Sigma, A9165), and 10 nM [Leu15]-gastrin I (Sigma, G9145). Growth factors used included 50 ng per mL mouse EGF (Peprotech, 315-09), 100 ng per mL mouse noggin (Peprotech, 250-38), 500 ng per mL human R-spondin 1 (R&D, 4645-RS), 100 ng per mL mouse Wnt-3a (R&D, 1324-WN), 20 μM. Y-27632 (Tocris, 1254), 10 mM nicotinamide (Sigma, N0636), 500 nM A83-01 (Tocris, 2939), 10 μM SB202190 (Tocris, 1264). Transwells were 0.4 μm pore polyester membrane 24-well Transwell inserts (Corning). Cultures were incubated at 37° C. in 5% CO2.
Human ileum organoids were cultured in WENRNAS (Wnt, EGF, noggin, R-spondin1, Nicotinamide, A83-01, SB202190) and typically grown for 7-12 days before being used to plate monolayer cultures. On day 0, organoid cultures embedded in Matrigel were treated with TrypLE Express to break organoids into small pieces and/or single cells. The cells were resuspended to 0.5×10^6 cells/mL in SBM containing WENRAY (Wnt, EGF, noggin, R-spondin1, A83-01, Y-27632). Following this step, 200 μL of cell suspension was plated into the apical side of a 24-well Transwell (100,000 cells/well) and 600 μL of SBM with WENRAY was added to the basolateral side. Ileum cells were differentiated with ENRA (EGF, noggin, R-spondin 1, A83-01) on day 3. The color of apical compartment turns from pink or orange to yellow due to the increase in NHE3 expression after differentiation.
Each human ileum monolayer culture well was washed twice with fresh SBM on the apical side on day 6 before compound dosing. All compound stocks were 10 mM dissolved in DMSO. Each compound stock was individually mixed with fresh SBM to reach final compound concentration 1 μM and dosed only on the apical side of the monolayer (total volume 200 μl). DMSO at the equivalent concentration was used as the vehicle control. Duplicate wells were dosed for each compound. On day 8, apical media pH was measured by pH electrode, to determine the ability of example compounds to produce sustained inhibition of NHE3 activity in a human monolayer culture system by preventing proton secretion into the apical compartment.

[3] = read-out: Fecal Na Excretion (% of vehicle)
[4] = read-out: Urinary Na Excretion (% of vehicle)

Structure (SMILES) | Fecal fluid content (Δ from vehicle) [1] | response vs control in vivo at 15 mg/kg [1, 3] [%] | response vs control in vivo at 15 mg/kg [1, 4] [%] | inhibition at 1 µM [2] [%]
Cc1cc(S(=O)(=O)NCCOCCOCCNC(=O)NCCCCNC(=O)NCCOCCOCCNS(=O)(=O)c2ccc(O[C@H]3c4cc(Cl)cc(Cl)c4C[C@@H]3N3CCNCC3)c(C)c2)ccc1O[C@H]1c2cc(Cl)cc(Cl)c2C[C@@H]1N1CCNCC1 [Example 32, 3-[2-(2-[2-[(4-[[(1S,2S)-4,6-Dichloro-2-(piperazin-1-yl)-2,3-dihydro-1H-inden-1-yl]oxy]-3-methylbenzene)sulfonamido]ethoxy]ethoxy)ethyl]-1-[4-([[2-(2-[2-[(4-[[(1S,2S)-4,6-dichloro-2-(piperazin-1-yl)-2,3-dihydro-1H-inden-1-yl]oxy]-3-methylbenzene)sulfonamido]ethoxy]ethoxy)ethyl]carbamoyl]amino)butyl]urea; bis(trifluoroacetic acid)] | A (<5) | 150 to 200 | 50 to 70 | > 70
Cc1cc(Cl)cc2c1C[C@H](N1CCNCC1)[C@H]2Oc1ccc(S(=O)(=O)NCCOCCOCCNC(=O)NCCCCNC(=O)NCCOCCOCCNS(=O)(=O)c2ccc(O[C@H]3c4cc(Cl)cc(C)c4C[C@@H]3N3CCNCC3)cc2)cc1 [Example 34, 3-[2-(2-[2-[(4-[[(1S,2S)-6-Chloro-4-methyl-2-(piperazin-1-yl)-2,3-dihydro-1H-inden-1-yl]oxy]benzene)sulfonamido]ethoxy]ethoxy)ethyl]-1-[4-([[2-(2-[2-[(4-[[(1S,2S)-6-chloro-4-methyl-2-(piperazin-1-yl)-2,3-dihydro-1H-inden-1-yl]oxy]benzene)sulfonamido]ethoxy]ethyl)ethyl]carbamoyl]amino)butyl]urea; bis(trifluoroacetic acid)] | B (5-10) | 150 to 200 | 50 to 70 | 50 to 70
N#Cc1cc(Cl)cc2c1C[C@H](N1CCCNCC1)[C@H]2Oc1ccc(S(=O)(=O)N[C@H]2CCN(CCOCCNC(=O)NCCCCNC(=O)NCCOCCN3CC[C@H](NS(=O)(=O)c4ccc(O[C@H]5c6cc(Cl)cc(C#N)c6C[C@@H]5N5CCCNCC5)cc4)C3)C2)cc1 [Example 126, 4-([(1S,2S)-6-Chloro-4-cyano-2-(1,4-diazepan-1-yl)-2,3-dihydro-1H-inden-1-yl]oxy)-N—[(S)-1-(20-[(S)-3-([4-([(1S,2S)-6-chloro-4-cyano-2-(1,4-diazepan-1-yl)-2,3-dihydro-1H-inden-1-yl]oxy)phenyl]sulfonamido)pyrrolidin-1-yl]-7,14-dioxo-3,18-dioxa-6,8,13,15-tetraazaicosyl)pyrrolidin-3-yl]benzenesulfonamide] |  |  |  | < 50
N#Cc1cc(Cl)cc2c1C[C@H](N1CCNCC1)[C@H]2Oc1ccc(S(=O)(=O)N[C@H]2CCN(CCOCCNC(=O)NCCCCNC(=O)NCCOCCN3CC[C@H](NS(=O)(=O)c4ccc(O[C@H]5c6cc(Cl)cc(C#N)c6C[C@@H]5N5CCNCC5)cc4)C3)C2)cc1 [Example 107, 4-([(1S,2S)-6-Chloro-4-cyano-2-(piperazin-1-yl)-2,3-dihydro-1H-inden-1-yl]oxy)-N—[(S)-1-(20-[(S)-3-([4-([(1S,2S)-6-chloro-4-cyano-2-(piperazin-1-yl)-2,3-dihydro-1H-inden-1-yl]oxy)phenyl]sulfonamido)pyrrolidin-1-yl]-7,14-dioxo-3,18-dioxa-6,8,13,15-tetraazaicosyl)pyrrolidin-3-yl]benzenesulfonamide; tetra(trifluoroacetate)] |  |  |  | > 70
N#Cc1cc(Cl)cc2c1C[C@H](N1CCNCC1)[C@H]2Oc1ccc(S(=O)(=O)N[C@@H]2CCN(CCOCCNC(=O)NCCCCNC(=O)NCCOCCN3CC[C@@H](NS(=O)(=O)c4ccc(O[C@H]5c6cc(Cl)cc(C#N)c6C[C@@H]5N5CCNCC5)c(F)c4)C3)C2)cc1F [Example 109, 4-([(1S,2S)-6-Chloro-4-cyano-2-(piperazin-1-yl)-2,3-dihydro-1H-inden-1-yl]oxy)-N—[(R)-1-(20-[(R)-3-[(4-([(1S,2S)-6-chloro-4-cyano-2-(piperazin-1-yl)-2,3-dihydro-1H-inden-1-yl]oxy)-3-fluorophenyl)sulfonamide)pyrrolidin-1-yl]-7,14-dioxo-3,18-dioxa-6,8,13,15-tetraazaicosyl)pyrrolidin-3-yl]-3-fluorobenzenesulfonamide; tetra(trifluoroacetate)] |  |  |  | > 70
N#Cc1cc(Cl)cc2c1C[C@H](N1CCNCC1)[C@H]2Oc1ccc(S(=O)(=O)N[C@H]2CCN(CCOCCNC(=O)NCCCCNC(=O)NCCOCCN3CC[C@H](NS(=O)(=O)c4ccc(O[C@H]5c6cc(Cl)cc(C#N)c6C[C@@H]5N5CCNCC5)c(F)c4)C3)C2)cc1F [Example 110, 4-([(1S,2S)-6-Chloro-4-cyano-2-(piperazin-1-yl)-2,3-dihydro-1H-inden-1-yl]oxy)-N—[(S)-1-(20-[(S)-3-[(4-([(1S,2S)-6-chloro-4-cyano-2-(piperazin-1-yl)-2,3-dihydro-1H-inden-1-yl]oxy)-3-fluorophenyl)sulfonamide)pyrrolidin-1-yl]-7,14-dioxo-3,18-dioxa-6,8,13,15-tetraazaicosyl)pyrrolidin-3-yl]-3-fluorobenzenesulfonamide; tetra(trifluoroacetate)] |  |  |  | > 70
Cc1cc(S(=O)(=O)N[C@H]2CCN(CCOCCNC(=O)NCCCCNC(=O)NCCOCCN3CC[C@H](NS(=O)(=O)c4ccc(O[C@H]5c6cc(Cl)cc(Cl)c6C[C@@H]5N(C)C)c(C)c4)C3=O)C2=O)ccc1O[C@H]1c2cc(Cl)cc(Cl)c2C[C@@H]1N(C)C [Example 91, 1-(2-[2-[(3S)-3-[(4-[[(1S,2S)-4,6-Dichloro-2-(dimethylamino)-2,3-dihydro-1H-inden-1-yl]oxy]-3-methylbenzene)sulfonamido]-2-oxopyrrolidin-1-yl]ethoxy]ethyl)-3-(4-[[(2-[2-[(3S)-3-[(4-[[(1S,2S)-4,6-dichloro-2-(dimethylamino)-2,3-dihydro-1H-inden-1-yl]oxy]-3-methylbenzene)sulfonamido]-2-oxopyrrolidin-1-yl]ethoxy]ethyl)carbamoyl]amino]butyl)urea] |  |  |  | 50 to 70
